Columns and labels:
HL-60 cells = assay: 3H-thymidine incorporation proliferation assay; assay type: cell-based; settings: Homo sapiens, HL-60, 24 hours
Experimental: Promyelocytic leukemia cells, HL-60, were cultured in RPMI media containing 10% heat inactivated fetal calf serum (FCS). On the day of the study, the cells were collected, washed and resuspended at a concentration of 0.5×10^6 cells/ml in RPMI containing 10% FCS. 100 μl/well of cell suspension was added to 96 well plates. […] Finally, 10 μl of a 100 μCi/ml ^3H-thymidine was added per well and the plates were incubated for 24 hours. The plates were harvested using a 96 well Harvester (Packard Instruments) and counted on a Packard Top Count counter. Four parameter logistic curves were fitted to the ^3H-thymidine incorporation as a function of drug molarity using Prism software to determine IC50 values.

MX-1 tumors = assay type: in vivo, mice
Experimental: MX-1 tumors which are moderately doxorubicin-sensitive, human breast carcinoma xenografts, were implanted subcutaneously (s.c.) and mice were weighed and tumors were measured (by caliper) at least once a week prior to start of dosing (Day 0), then twice a week during the study. Immediately before the start of dosing (Study Day −2 to Day 0), mice were randomized to various groups based on the weight of the tumors. Mice were euthanized after the tumors reached a cutoff weight of 1.5 g (cancer endpoint). Studies were terminated at Day 60.

LS174T tumor = tested on: LS174T tumor
Excerpt: Statistically significant from vehicle control group: *: p<0.05; **: p<0.01 (unpaired t-test).

[1] = Aggregation, Centricon ultrafiltration; assay type: physicochemical; settings: 17.4 μMol/ml in distilled water, 2 hr at 1500 g; listed as Dox
[2] = 3 mg/kg, 5 doses, one every 7 days

COc1cccc2c1C(=O)c1c(O)c3c(c(O)c1C2=O)C[C@@](O)(C(=O)CO)C[C@@H]3O[C@H]1C[C@H](N)[C@H](O)[C@H](C)O1 [Doxorubicin]
IC50 (HL-60 cells): 0.075 µM | MDS (MX-1 tumors; [2]): 27.3 ± 2.6 days | Survival: MDS Extension over controls (MX-1 tumors; [2]): 33 ± 13% | TGD (MX-1 tumors; [2]): 6.8 ± 2.7 days | Tumor Weight (mg, Day 18) (MX-1 tumors; [2]): 906 ± 150 mg | TGI (MX-1 tumors; 3 mg/kg, 5 doses, one every 7 days, over control at Day 18): 22 ± 16% | tolerability of dose regimens (MX-1 tumors; mouse, in vivo): very well tolerated | MDS (LS174T tumor; [2]): 25.8 ± 2.5 days | MDS Extension over controls (LS174T tumor; [2]): 3 ± 13% | Mean Tumor Weight (mg, Day 19) (LS174T tumor; [2]): 1035 ± 180 mg | TGD (LS174T tumor; [2]): 0.8 ± 3.1 days | TGI (LS174T tumor; [2]): 0% | efficacy in inhibiting LS-174T tumor and extending survival (LS174T tumor; doxorubicin 3 mg/kg): ineffective | tolerability of dose regimens (LS174T tumor; mouse, in vivo): very well tolerated | 3000 MWCO Filt. [1]: 81%

Reference: US8034787B2, “Enzyme-cleavable prodrug compounds” (Medarex, Inc., priority 1998, dated 2011)
